Measured values as given in patent US20110098296A1, “Thiazole And Oxazole Kinase Inhibitors” (priority 2007, published 2011).
Counter-ions that a name gives are not always drawn.

Assays:
BT474 tumor cells [1] = experiment: Method B: CellTiter-Glo Growth Inhibition Assay, BT474; format: cell-based; conditions: Homo sapiens, BT-474, 72 h, 3 days
Description: (§1) Human breast tumor cells (BT474) were cultured in RPMI, (Invitrogen, 22400) containing 10% fetal bovine serum (FBS). Human head and neck tumor cells (HN5) were cultured in low glucose DMEM (Invitrogen, 12320) containing 10% FBS. Human colon tumor cells (Colo205) were cultured in DMEM (Invitrogen, 10564) containing 10% FBS. Human melanoma cancer cells (SK-MEL-28) were incubated in DMEM (Invitrogen). All cell lines were maintained at 37° C. in a humidified 5% CO2, 95% air incubator. Cells were harvested using trypsin/EDTA, counted using a haemocytometer, and plated in 30 μL of the appropriate media described above, at the following densities, in a half-area, black-walled, 96-well tissue culture plate (Corning 3882): BT474 3,000 cells/well, HN5 500 cells/well, Colo205 3,000 cells/well, and SK-MEL-28 500 cells/well). The next day, compounds were diluted in DMEM containing […] gentamicin, from 10 mM stock solutions in DMSO. 30 μL/well of these dilutions were added to the 30 μL/well of media currently on the cell plates. Medium containing 0.6% DMSO was added to control wells. The final concentration of DMSO in all wells was 0.3%. Cells were incubated at 37° C., 5% CO2 for 3 days. Cell biomass was estimated using CellTiter-Glo® reagent (Promega G7571). Briefly, plates were removed from the incubator and allowed to equilibrate to rt for 30 minutes. 25-60 μL of CellTiter-Glo® reagent were added to each well of the treated cells and plates were shaken on an orbital plate shaker for 2 mins. Plates were incubated without shaking for 30 more mins and read in a luminometer with an integration time of 0.5 seconds per well. Percent inhibition of cell growth was calculated relative to vehicle-treated control wells. Concentration of compound that inhibits 50% of vehicle control cell growth (IC50) was interpolated using nonlinear regression (Levenberg-Marquardt) and the equation, y=V max*(1−(x/(K+x)))+Y2, where “K” was equal to the IC50.

ErbB2 = molecular target: T1, ErbB2 (Homo sapiens, UniProt P04626); experiment: ErbB-2 substrate phosphorylation assay (HTRF); format: biochemical; conditions: Method (A): Enzyme Mix incubated with compound at 20° C. for 1 hr, reaction started by adding Substrate Mix
T1 construct: made in house; host or cells: baculovirus expression system
T1 sequence (P04626 23-1255): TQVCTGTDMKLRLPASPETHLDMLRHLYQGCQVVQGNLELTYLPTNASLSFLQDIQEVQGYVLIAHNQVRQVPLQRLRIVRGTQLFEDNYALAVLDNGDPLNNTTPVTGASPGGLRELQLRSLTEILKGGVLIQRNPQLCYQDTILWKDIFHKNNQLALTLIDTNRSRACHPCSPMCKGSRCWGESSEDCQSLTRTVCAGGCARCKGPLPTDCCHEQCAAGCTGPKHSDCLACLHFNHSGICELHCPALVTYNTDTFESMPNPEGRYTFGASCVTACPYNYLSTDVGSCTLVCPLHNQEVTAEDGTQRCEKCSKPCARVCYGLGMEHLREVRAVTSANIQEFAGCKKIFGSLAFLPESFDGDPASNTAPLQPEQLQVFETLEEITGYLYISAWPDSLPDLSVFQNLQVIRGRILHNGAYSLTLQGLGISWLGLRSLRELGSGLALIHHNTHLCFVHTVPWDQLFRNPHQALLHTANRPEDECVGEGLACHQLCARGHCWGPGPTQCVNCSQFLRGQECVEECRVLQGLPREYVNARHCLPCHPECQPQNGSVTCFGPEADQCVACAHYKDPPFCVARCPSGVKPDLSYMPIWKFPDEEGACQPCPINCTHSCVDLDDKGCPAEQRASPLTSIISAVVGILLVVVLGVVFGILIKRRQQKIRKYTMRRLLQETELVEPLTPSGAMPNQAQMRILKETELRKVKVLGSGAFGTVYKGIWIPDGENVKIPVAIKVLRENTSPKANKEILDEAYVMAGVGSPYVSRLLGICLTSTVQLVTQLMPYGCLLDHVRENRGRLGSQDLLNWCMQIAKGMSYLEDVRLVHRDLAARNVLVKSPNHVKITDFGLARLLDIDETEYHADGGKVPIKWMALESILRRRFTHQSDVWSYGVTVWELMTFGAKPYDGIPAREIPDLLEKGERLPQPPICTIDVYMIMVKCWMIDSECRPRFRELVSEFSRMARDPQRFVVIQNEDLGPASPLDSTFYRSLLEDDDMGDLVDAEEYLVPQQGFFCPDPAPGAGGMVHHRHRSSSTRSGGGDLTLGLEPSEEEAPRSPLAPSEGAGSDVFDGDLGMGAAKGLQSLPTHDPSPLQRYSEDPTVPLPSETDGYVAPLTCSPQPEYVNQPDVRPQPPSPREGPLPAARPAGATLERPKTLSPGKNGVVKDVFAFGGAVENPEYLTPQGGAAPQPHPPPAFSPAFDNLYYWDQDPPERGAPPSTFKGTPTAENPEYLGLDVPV
How it was run: (§2)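 Baculovirus-expressed kinase (0.8 nM EGFR or 10 nM ErbB2 in enzyme mix) with Peptide C 0.8 μM and ATP 20 μM (substrate-mix levels), MOPS pH 7.5, MnCl2; 90 min, 20 °C, HTRF anti-phosphotyrosine. Method A adds 1 h enzyme–compound preincubation; B none. pIC50, final compound 0.00027–47.6 μM.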

Colo205 tumor cells [2] = experiment: Method B: CellTiter-Glo Growth Inhibition Assay, Colo205; format: cell-based; conditions: Homo sapiens, COLO 205, 72 h, 3 days
Description: as §1

EGFR = molecular target: T2, EGFR (Homo sapiens, UniProt P00533); experiment: EGFR substrate phosphorylation assay (HTRF); format: biochemical; conditions: Method (A): Enzyme Mix incubated with compound at 20° C. for 1 hr, reaction started by adding Substrate Mix
T2 construct: made in house; host or cells: baculovirus expression system
T2 sequence (P00533 25-1210): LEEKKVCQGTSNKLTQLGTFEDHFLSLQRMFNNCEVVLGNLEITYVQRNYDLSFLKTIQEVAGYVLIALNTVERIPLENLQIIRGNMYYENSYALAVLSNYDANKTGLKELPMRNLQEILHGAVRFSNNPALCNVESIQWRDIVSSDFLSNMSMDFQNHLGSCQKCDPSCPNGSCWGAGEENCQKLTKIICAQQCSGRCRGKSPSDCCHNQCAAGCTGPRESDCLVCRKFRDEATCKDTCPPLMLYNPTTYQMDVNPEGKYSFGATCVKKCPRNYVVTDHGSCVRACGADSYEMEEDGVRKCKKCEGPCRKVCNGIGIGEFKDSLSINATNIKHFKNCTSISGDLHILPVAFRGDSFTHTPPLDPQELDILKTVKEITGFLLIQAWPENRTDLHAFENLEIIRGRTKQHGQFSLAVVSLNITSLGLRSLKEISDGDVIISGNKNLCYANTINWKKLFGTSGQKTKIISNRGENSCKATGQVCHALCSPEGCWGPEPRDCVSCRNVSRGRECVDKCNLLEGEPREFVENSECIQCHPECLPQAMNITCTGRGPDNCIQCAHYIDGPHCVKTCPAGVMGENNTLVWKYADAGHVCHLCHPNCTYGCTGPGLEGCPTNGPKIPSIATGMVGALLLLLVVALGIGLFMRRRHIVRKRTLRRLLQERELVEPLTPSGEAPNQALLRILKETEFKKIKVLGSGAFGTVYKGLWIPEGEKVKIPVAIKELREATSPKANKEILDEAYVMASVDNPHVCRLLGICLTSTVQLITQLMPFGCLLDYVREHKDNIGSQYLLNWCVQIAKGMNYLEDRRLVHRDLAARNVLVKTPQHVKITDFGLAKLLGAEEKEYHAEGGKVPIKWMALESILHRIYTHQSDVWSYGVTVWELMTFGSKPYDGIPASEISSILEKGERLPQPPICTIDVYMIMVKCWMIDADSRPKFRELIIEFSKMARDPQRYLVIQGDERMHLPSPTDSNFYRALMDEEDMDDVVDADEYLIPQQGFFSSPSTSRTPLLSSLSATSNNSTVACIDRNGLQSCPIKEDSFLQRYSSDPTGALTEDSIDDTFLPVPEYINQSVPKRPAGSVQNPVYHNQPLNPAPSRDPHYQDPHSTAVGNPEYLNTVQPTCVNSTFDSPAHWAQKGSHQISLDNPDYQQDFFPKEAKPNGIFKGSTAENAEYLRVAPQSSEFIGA
How it was run: as §2

HN5 tumor cells [3] = experiment: Method B: CellTiter-Glo Growth Inhibition Assay, HN5; format: cell-based; conditions: Homo sapiens, 72 h, 3 days
Description: as §1

SK-MEL-3 tumor cells = experiment: Method C: Cell Growth Inhibition Assay (CellTiter-Glo), SK-MEL-3; format: cell-based; conditions: Homo sapiens, SK-MEL3, 72 h, 3 days, 4-parameter fit
How it was run: (§3)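 Plating at 500 cells/well is followed the next day by addition of compound as a 1:3 serial dilution series. After 3 days' incubation, CellTiter-Glo luminescence is read and IC50 is calculated versus DMSO wells.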

HN5 tumor cells [4] = experiment: Method C: Cell Growth Inhibition Assay (CellTiter-Glo), HN5; format: cell-based; conditions: Homo sapiens, 72 h, 3 days, 4-parameter fit
How it was run: as §3

A375P F11s tumor cells = experiment: Method C: Cell Growth Inhibition Assay (CellTiter-Glo), A375P F11s; format: cell-based; conditions: Homo sapiens, 72 h, 3 days, 4-parameter fit
How it was run: as §3

BT474 tumor cells [5] = experiment: Method C: Cell Growth Inhibition Assay (CellTiter-Glo), BT474; format: cell-based; conditions: Homo sapiens, BT-474, 72 h, 3 days, 4-parameter fit
SK-MEL-28 tumor cells = experiment: Method C: Cell Growth Inhibition Assay (CellTiter-Glo), SK-MEL-28; format: cell-based; conditions: Homo sapiens, SK-MEL-28, 72 h, 3 days, 4-parameter fit
How it was run: as §3

Colo205 tumor cells [6] = experiment: Method C: Cell Growth Inhibition Assay (CellTiter-Glo), Colo205; format: cell-based; conditions: Homo sapiens, COLO 205, 72 h, 3 days, 4-parameter fit
How it was run: as §3

HT-29 tumor cells = experiment: Method C: Cell Growth Inhibition Assay (CellTiter-Glo), HT-29; format: cell-based; conditions: Homo sapiens, HT-29, 72 h, 3 days, 4-parameter fit
How it was run: as §3

SMILES	IC50 (BT474 tumor cells [1]) [µM]	IC50 (ErbB2) [µM]	IC50 (Colo205 tumor cells [2]) [µM]	IC50 (EGFR) [µM]	IC50 (HN5 tumor cells [3]) [µM]	IC50 (SK-MEL-3 tumor cells) [µM]	IC50 (HN5 tumor cells [4]) [µM]	IC50 (A375P F11s tumor cells) [µM]	IC50 (BT474 tumor cells [5]) [µM]	IC50 (SK-MEL-28 tumor cells) [µM]	IC50 (Colo205 tumor cells [6]) [µM]	IC50 (HT-29 tumor cells) [µM]
COc1ccc(Nc2nccc(-c3sc(N)nc3-c3cccc(NC(=O)c4c(F)cccc4F)c3)n2)cc1N(C)C [Example 19, N-{3-[2-Amino-5-(2-{[3-(dimethylamino)-4-(methyloxy)phenyl]amino}-4-pyrimidinyl)-1,3-thiazol-4-yl]phenyl}-2,6-difluorobenzamide]	< 0.1	< 0.1	0.1 to 1	< 0.1	< 0.1							
CS(=O)(=O)CCN1CCN(c2ccc(Nc3nccc(-c4scnc4-c4cccc(NC(=O)c5c(F)cccc5F)c4)n3)cc2F)CC1 [Example 80, 2,6-Difluoro-N-[3-(5-{2-[(3-fluoro-4-{4-[2-(methylsulfonyl)ethyl]-1-piperazinyl}phenyl)amino]-4-pyrimidinyl}-1,3-thiazol-4-yl)phenyl]benzamide]		< 0.1		< 0.1		0.1 to 1	< 0.1	0.1 to 1	< 0.1	0.1 to 1	> 1	0.1 to 1
COc1ccc(Nc2nccc(-c3sc(N)nc3-c3cccc(NC(=O)c4c(F)cccc4F)c3)n2)cc1N1CCN(C)CC1 [Example 11, N-{3-[2-Amino-5-(2-{[4-(methyloxy)-3-(4-methyl-1-piperazinyl)phenyl]amino}-4-pyrimidinyl)-1,3-thiazol-4-yl]phenyl}-2,6-difluorobenzamide trifluoroacetate]		< 0.1		< 0.1		0.1 to 1	< 0.1	0.1 to 1	< 0.1	< 0.1	0.1 to 1	0.1 to 1
CN(C)CCOc1ccc(Nc2nccc(-c3sc(N)nc3-c3cc(NC(=O)c4c(F)cccc4F)ccc3F)n2)cc1Cl [Example 68, N-[3-(2-Amino-5-{2-[(3-chloro-4-{[2-(dimethylamino)ethyl]oxy}phenyl)amino]-4-pyrimidinyl}-1,3-thiazol-4-yl)-4-fluorophenyl]-2,6-difluorobenzamide]		< 0.1		< 0.1		0.1 to 1	< 0.1	0.1 to 1	< 0.1	0.1 to 1	0.1 to 1	0.1 to 1
CCc1nc(-c2cccc(NC(=O)c3c(F)cccc3F)c2)c(-c2ccnc(Nc3ccc(OCCN(C)C)c(F)c3)n2)s1 [Example 112, N-[3-(5-{2-[(4-{[2-(Dimethylamino)ethyl]oxy}-3-fluorophenyl)amino]-4-pyrimidinyl}-2-ethyl-1,3-thiazol-4-yl)phenyl]-2,6-difluorobenzamide]		< 0.1		< 0.1		> 1	0.1 to 1	0.1 to 1	< 0.1	> 1	0.1 to 1	0.1 to 1
CC(C)c1nc(-c2cccc(NC(=O)c3c(F)cccc3F)c2)c(-c2ccnc(Nc3ccc(OCCN4CCCC4)c(Cl)c3)n2)s1 [Example 121, N-{3-[5-{2-[(3-chloro-4-{[2-(1-pyrrolidinyl)-ethyl]oxy}phenyl)amino]-4-pyrimidinyl}-2-(1-methylethyl)-1,3-thiazol-4-yl]phenyl}-2,6-difluorobenzamide]		< 0.1		< 0.1		0.1 to 1	0.1 to 1	0.1 to 1	0.1 to 1	0.1 to 1	0.1 to 1	0.1 to 1
CCNc1nc(-c2cccc(NC(=O)c3c(F)cccc3F)c2)c(-c2ccnc(Nc3ccc(CCN4CCCC4)c(F)c3)n2)s1 [Example 26, N-(3-{2-(Ethylamino)-5-[2-({3-fluoro-4-[2-(1-pyrrolidinyl)ethyl]phenyl}amino)-4-pyrimidinyl]-1,3-thiazol-4-yl}phenyl)-2,6-difluorobenzamide trifluoroacetate]		< 0.1		< 0.1		0.1 to 1	0.1 to 1	0.1 to 1	0.1 to 1	0.1 to 1	0.1 to 1	0.1 to 1
CC(=O)N1CCC(Oc2ccc(Nc3nccc(-c4sc(C)nc4-c4cccc(NC(=O)c5c(F)cccc5F)c4)n3)cc2F)CC1 [Example 109, N-(3-{5-[2-({4-[(1-Acetyl-4-piperidinyl)oxy]-3-fluorophenyl}amino)-4-pyrimidinyl]-2-methyl-1,3-thiazol-4-yl}phenyl)-2,6-difluorobenzamide]		< 0.1		< 0.1		> 1	0.1 to 1	> 1	0.1 to 1	> 1	> 1	> 1

More lines, now with the values ahead:

IC50 (BT474 tumor cells [1]) [µM]	IC50 (ErbB2) [µM]	IC50 (Colo205 tumor cells [2]) [µM]	IC50 (EGFR) [µM]	IC50 (HN5 tumor cells [3]) [µM]	IC50 (SK-MEL-3 tumor cells) [µM]	IC50 (HN5 tumor cells [4]) [µM]	IC50 (A375P F11s tumor cells) [µM]	IC50 (BT474 tumor cells [5]) [µM]	IC50 (SK-MEL-28 tumor cells) [µM]	IC50 (Colo205 tumor cells [6]) [µM]	IC50 (HT-29 tumor cells) [µM]	SMILES
< 0.1	< 0.1	0.1 to 1	< 0.1	< 0.1								CN(C)CCOc1ccc(Nc2nccc(-c3scnc3-c3cccc(NC(=O)c4c(F)cccc4F)c3)n2)cc1Cl [Example 89]
0.1 to 1	< 0.1	> 1	< 0.1	0.1 to 1								O=C(Cc1cccs1)Nc1cccc(-c2ncsc2-c2ccnc(Nc3ccc4c(c3)OCC(=O)N4)n2)c1 [Example 85, N-[3-(5-{2-[(3-Oxo-3,4-dihydro-2H-1,4-benzoxazin-7-yl)amino]-4-pyrimidinyl}-1,3-thiazol-4-yl)phenyl]-2-(2-thienyl)acetamide hydrochloride]
< 0.1	< 0.1	0.1 to 1	< 0.1	< 0.1								Nc1nc(-c2cccc(NC(=O)c3c(F)cccc3F)c2)c(-c2ccnc(Nc3cccc(CCS(N)(=O)=O)c3)n2)s1 [Example 8]
< 0.1	< 0.1	0.1 to 1	< 0.1	< 0.1								CCN(CC)CCOc1cccc(Nc2nccc(-c3scnc3-c3cccc(NC(=O)c4c(F)cccc4F)c3)n2)c1 [Example 92, N-[3-(5-{2-[(3-{[2-(Diethylamino)ethyl]oxy}phenyl)amino]-4-pyrimidinyl}-1,3-thiazol-4-yl)phenyl]-2,6-difluorobenzamide-formic acid]
